Measurements reported in patent EP3928779A1 (Chugai Seiyaku Kabushiki Kaisha, priority 2014, dated 2016).

What was measured:
[1] = tested on: rat small-intestinal brush border membrane vesicles; assay: Inhibitory effect on 33PO4 uptake into rat small-intestinal brush border membrane vesicles (rapid filtration method); format: biochemical; details: 33PO4 uptake into rat small-intestinal BBMVs; test compound 1 µM; reacted for 60 seconds
Outline: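 Uptake of ^33PO4 was measured by rapid filtration and liquid scintillation counting of filter-retained vesicles, after quenching with ice-cold 110 mM NaCl/1 mM KH2PO4/10 mM HEPES pH 7.5. Vesicles were brush border membranes from the upper small intestine of female Wistar rats aged 4–5 weeks.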

[2] = tested on: chronic kidney disease model rat; assay: Suppressive effect on rise in serum parathyroid hormone concentration of chronic kidney disease model rat; format: in vivo; details: suppression of a rise in serum parathyroid hormone concentration
Method: (§1) A group given feed non-supplemented with the test compound was used as a reference pathological group, and a group neither subjected to the kidney removal nor antibody administration and given feed non-supplemented with the test compound was used as a normal group. Fourteen weeks after the start of administration of the test compound, blood was collected from the abdominal aorta and serum was collected. As an indicator of renal damage, serum creatinine concentrations were measured by an enzyme assay (creatinase-sarcosine oxidase-POD method). The rate of suppression of a rise in serum creatinine concentration was determined according to the following expression: Rate (%) of suppression of a rise in serum creatinine concentration = (1−[(Serum creatinine concentration of the test compound−treated pathological group)−(Serum ceatinine concentration of the […])]/[(Serum creatinine concentration of the reference pathological group)−(Serum creatinine concentration of the normal group)]) × 100 [formula]
Using serum collected from the same animal as that in test example 7 after 14 weeks from the start of administration of the test compound, concentrations of serum parathyroid hormone were measured by the ELISA method. […]

[3] = tested on: chronic kidney disease model rat; assay: Suppressive effect on rise in serum creatinine concentration of chronic kidney disease model rat; format: in vivo; details: suppression of a rise in serum creatinine concentration, dosage 0.1% in feed for 14 weeks
Method: as §1
As a result, the test compound was confirmed to have a suppressive effect on a rise in serum creatinine concentration, namely, a suppressive effect on renal damage. […]

[4] = tested on: chronic kidney disease model rat; assay: Suppressive effect on calcium deposition in blood vessel of chronic kidney disease model rat; format: in vivo; details: suppression of calcium deposition in blood vessel (thoracic aorta)
Method: as §1
From the same animal as that in Test Example 7, the thoracic aorta was collected 14 weeks after the start of administration of the test compound, and the dry weight was measured. […]

[5] = tested on: Adenine-induced renal failure rats; assay: Suppressive effect on rise in serum phosphorus concentration by combined use with sevelamer carbonate (adenine-induced renal failure rat); format: in vivo; details: 14 days
Text: Adenine was forcedly administered orally to each Wistar male rat (7-8 weeks old) to impair renal functions and thereby prepare a hyperphosphatemia model (Katsumata K, Kusano K, Hirata M, Tsunemi K, Nagano N, Burke SK, Fukushima N. Sevelamer hydrochloride prevents ectopic calcification and renal osteodystrophy in chronic renal failure rats. Kidney Int. 2003 Aug; 64 (2): 441-50). Each test compound was mixed at a ratio of 0.1% of mass concentration with feed. The animal was fed with a given amount of the feed for 3 days. A group given feed non-supplemented with a test compound was used as a reference pathological group, and an adenine-unadministered group given feed non-supplemented with a test compound was used as a normal group. 3 days after the start of administration of the test compound, blood was collected from the jugular vein, and serum was collected. Serum phosphorus concentrations were measured by the Fiske-Subbarow method. The rate of suppression of a rise in serum phosphorus concentration was determined according to the following expression: Rate (%) of suppression of a rise in serum phosphorus concentration = (1−[(Serum phosphorus concentration of the test compound−treated pathological group)−(Serum phosphorus concentration of the normal group)]/[(Serum phosphorus concentration of the reference pathological group)−(Serum phosphorus concentration of the normal group)]) × 100 [formula]
Adenine-induced renal failure rats were prepared in the same manner as in Test Example 5. […] Serum phosphorus concentrations were measured by the Fiske-Subbarow method. The rate of suppression of a rise in serum phosphorus concentration was determined according to the following expression: Rate (%) of suppression of a rise in serum phosphorus concentration = (1−[(Serum phosphorus concentration of the compound−treated pathological group)−(Serum phorphorus concentration of the normal group)]/[(Serum phosphorus concentration of the reference pathological group)−(Serum phosphorous concentration of the normal group)]) × 100 [formula] […]

[6] = dosage 0.1% in feed for 14 weeks
[7] = dosage 0.3% in feed for 14 weeks

COCCN(C)CCOc1ccc(CN2C(=O)C(C(=O)Nc3ccc(C(F)(F)F)cc3-c3cc(C(F)(F)F)ncn3)=C(O)C3(CCCC3)N2C)c(F)c1F [Example 14, 7-[[2,3-Difluoro-4-[2-[2-methoxyethyl(methyl)amino]ethoxy]phenyl]methyl]-10-hydroxy-6-methyl-8-oxo-N-[4-(trifluoromethyl)-2-[6-(trifluoromethyl)pyrimidin-4-yl]phenyl]-6,7-diazaspiro[4.5]dec-9-ene-9-carboxamide]
Rate of uptake inhibition (%) (1 µM) [1]: 29% | Rate of inhibition (%) [2, 6]: 13% | Rate of inhibition (%) [2, 7]: 67% | Rate of inhibition (%) [3]: 17% | Rate of inhibition (%) [4, 6]: 100% | Rate of inhibition (%) [4, 7]: 100% | Suppression rate of rise in serum phosphorus concentration (%) ([5]; test compound 0.05% by mass in combination with sevelamer carbonate 0.5% by mass in feed): 104% | Suppression rate of rise in serum phosphorus concentration (%) ([5]; test compound 0.05% by mass in feed alone (sevelamer carbonate 0%)): 61% | Suppression rate of rise in serum phosphorus concentration (%) ([5]; test compound 0.1% by mass in feed alone (sevelamer carbonate 0%)): 79%
